Data as given in PubChem BioAssay AID1963834 (Molecular Pharmacology Branch, DTP, NCI, 2024).

Tested on: 873145-292-R-J1-PDC complex spheroid viability
Assay: Anticancer human tumor 873145-292-R-J1-PDC patient-derived renal clear cell carcinoma cell line growth inhibition [POLQ]
Details: for IC50: curve of first compound; for viability, T/C: stronger effect = lower value
Procedure, shortened: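 Complex spheroid viability model combining PDC tumour cells with endothelial (HUVEC) and MSC stromal cells. Novobiocin, ART-558 or RP6685 were tested singly and in combination with standard and investigational anticancer drugs. Each was titrated in half-log steps from near clinical Cmax, or from 10 microM where Cmax was unknown.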

[1] = second compound 0.0316 µM, first compound 0.0316 µM
[2] = second compound 0.0316 µM, first compound 0.1 µM
[3] = second compound 0.0316 µM, first compound 0.316 µM
[4] = second compound 0.0316 µM, first compound 1 µM
[5] = second compound 0.1 µM, first compound 0.0316 µM
[6] = second compound 0.1 µM, first compound 0.1 µM
[7] = second compound 0.1 µM, first compound 0.316 µM
[8] = second compound 0.1 µM, first compound 1 µM
[9] = second compound 0.316 µM, first compound 0.0316 µM
[10] = second compound 0.316 µM, first compound 0.1 µM
[11] = second compound 0.316 µM, first compound 0.316 µM
[12] = second compound 0.316 µM, first compound 1 µM
[13] = second compound 1 µM, first compound 0.0316 µM
[14] = second compound 1 µM, first compound 0.1 µM
[15] = second compound 1 µM, first compound 0.316 µM
[16] = second compound 1 µM, first compound 1 µM
[17] = second compound 3.16 µM, first compound 0.0316 µM
[18] = second compound 3.16 µM, first compound 0.1 µM
[19] = second compound 3.16 µM, first compound 0.316 µM
[20] = second compound 3.16 µM, first compound 1 µM
[21] = second compound 10 µM, first compound 0.0316 µM
[22] = second compound 10 µM, first compound 0.1 µM
[23] = second compound 10 µM, first compound 0.316 µM
[24] = second compound 10 µM, first compound 1 µM
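Also: spheroids exposed to compounds for 7 days before viability readout.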
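For viability, T/C in this document: luminescence signal used as surrogate for viable cell content; 100% = DMSO vehicle control viability.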

C=CCn1c(=O)c2cnc(Nc3ccc(N4CCN(C)CC4)cc3)nc2n1-c1cccc(C(C)(C)O)n1 + Nc1ccc(C#CCN(C(=O)Cc2ncc(C(F)(F)F)cc2C(F)(F)F)c2ccc(F)cc2)nn1
IC50 (second compound 0.0316 µM): > 1 µM | IC50 (second compound 0.1 µM): > 1 µM | IC50 (second compound 0.316 µM): > 1 µM | IC50 (second compound 1 µM): > 1 µM | IC50 (second compound 3.16 µM): > 1 µM | IC50 (second compound 10 µM): > 1 µM | viability, T/C (second compound 0.0316 µM, first compound 0.00316 µM): 93.8% | viability, T/C (second compound 0.0316 µM, first compound 0.01 µM): 110% | viability, T/C [1]: 92.7% | viability, T/C [2]: 86.6% | viability, T/C [3]: 78.5% | viability, T/C [4]: 77.3% | viability, T/C (second compound 0.1 µM, first compound 0.00316 µM): 106% | viability, T/C (second compound 0.1 µM, first compound 0.01 µM): 105% | viability, T/C [5]: 86.4% | viability, T/C [6]: 100% | viability, T/C [7]: 89.2% | viability, T/C [8]: 74.1% | viability, T/C (second compound 0.316 µM, first compound 0.00316 µM): 91.8% | viability, T/C (second compound 0.316 µM, first compound 0.01 µM): 99.1% | viability, T/C [9]: 79.5% | viability, T/C [10]: 86.4% | viability, T/C [11]: 87.8% | viability, T/C [12]: 72.9% | viability, T/C (second compound 1 µM, first compound 0.00316 µM): 93.5% | viability, T/C (second compound 1 µM, first compound 0.01 µM): 95.3% | viability, T/C [13]: 94.1% | viability, T/C [14]: 88.5% | viability, T/C [15]: 90.6% | viability, T/C [16]: 69.3% | viability, T/C (second compound 3.16 µM, first compound 0.00316 µM): 105% | viability, T/C (second compound 3.16 µM, first compound 0.01 µM): 103% | viability, T/C [17]: 88.4% | viability, T/C [18]: 90.2% | viability, T/C [19]: 81.4% | viability, T/C [20]: 79.8% | viability, T/C (second compound 10 µM, first compound 0.00316 µM): 110% | viability, T/C (second compound 10 µM, first compound 0.01 µM): 106% | viability, T/C [21]: 108% | viability, T/C [22]: 101% | viability, T/C [23]: 77.9% | viability, T/C [24]: 77.8%

COc1cccc2c1C(=O)c1c(O)c3c(c(O)c1C2=O)CC(O)(C(=O)CO)CC3OC1CC(N)C(O)C(C)O1 (centres undefined) + COC1C(OC(N)=O)C(O)C(Oc2ccc3c(O)c(NC(=O)c4ccc(O)c(CC=C(C)C)c4)c(=O)oc3c2C)OC1(C)C
IC50 (second compound 0.0316 µM): 1.61 µM | IC50 (second compound 0.1 µM): 1.6 µM | IC50 (second compound 0.316 µM): 1.51 µM | IC50 (second compound 1 µM): 1.4 µM | IC50 (second compound 3.16 µM): 1.45 µM | IC50 (second compound 10 µM): 1.5 µM | viability, T/C [1]: 98.9% | viability, T/C [2]: 92.4% | viability, T/C [3]: 74.9% | viability, T/C [4]: 81.8% | viability, T/C (second compound 0.0316 µM, first compound 3.16 µM): 4.46% | viability, T/C (second compound 0.0316 µM, first compound 10 µM): 4.3% | viability, T/C [5]: 99.5% | viability, T/C [6]: 91.7% | viability, T/C [7]: 75.1% | viability, T/C [8]: 80.8% | viability, T/C (second compound 0.1 µM, first compound 3.16 µM): 5.22% | viability, T/C (second compound 0.1 µM, first compound 10 µM): 4.58% | viability, T/C [9]: 98.1% | viability, T/C [10]: 84.2% | viability, T/C [11]: 69.3% | viability, T/C [12]: 74.1% | viability, T/C (second compound 0.316 µM, first compound 3.16 µM): 7.63% | viability, T/C (second compound 0.316 µM, first compound 10 µM): 3.12% | viability, T/C [13]: 99.6% | viability, T/C [14]: 78.8% | viability, T/C [15]: 78.8% | viability, T/C [16]: 68.5% | viability, T/C (second compound 1 µM, first compound 3.16 µM): 5.35% | viability, T/C (second compound 1 µM, first compound 10 µM): 3.76% | viability, T/C [17]: 93.3% | viability, T/C [18]: 79.8% | viability, T/C [19]: 80.7% | viability, T/C [20]: 71.1% | viability, T/C (second compound 3.16 µM, first compound 3.16 µM): 5.62% | viability, T/C (second compound 3.16 µM, first compound 10 µM): 2.42% | viability, T/C [21]: 101% | viability, T/C [22]: 90.1% | viability, T/C [23]: 78.2% | viability, T/C [24]: 74.4% | viability, T/C (second compound 10 µM, first compound 3.16 µM): 5.66% | viability, T/C (second compound 10 µM, first compound 10 µM): 2.86%
